The results in this text go back to patent publication US9783573B2, “IAP antagonists” (BRISTOL-MYERS SQUIBB COMPANY, priority 2012, dated 2017).

Assay [1] deals with His-BIR2-3 (125-356, C202A/C213G, XIAP) (Homo sapiens (Human), UniProt P98170, C202A/C213G). The assay is described as follows: XIAP-BIR2-3 Dimeric SMAC Peptide Homogeneous Time Resolved Fluorescence (HTRF) Assay. The settings on record: fluorescein labeled dimeric SMAC peptide. Format: binding. How it is done:
D. XIAP-BIR2-3 Dimeric SMAC Peptide Homogeneous Time Resolved Fluorescence (HTRF) Assay
(§1) Assays were performed in black, flat-bottom, 384-well plates.
(In general: In TR-FRET formats the signal depends on donor and acceptor labels being close together.)

A further assay addresses His-BIR3 (241-356, XIAP) (Homo sapiens (Human), UniProt P98170). The assay is described as follows: XIAP-BIR3/SMAC Homogeneous Time Resolved Fluorescence (HTRF) Assay. In kind it is binding. The note with it: fluorescein labeled SMAC peptide. How it is done: B. XIAP-BIR3/SMAC Homogeneous Time Resolved Fluorescence (HTRF) Assay
as §1

The IC50 is the point on the concentration scale where inhibition reaches its midpoint. Low values mean higher potency, high ones lower potency.

As to `CCN[C@@H](C)C(=O)N[C@H](C(=O)N1Cc2cc(OCc3ccc(C(=O)NC4C[C@@H](C(=O)NC5CCCc6ccccc65)N(C(=O)[C@@H](NC(=O)[C@H](C)NC)C(C)(C)C)C4)cc3)ccc2C[C@H]1C(=O)NC1CCCc2ccccc21)C(C)(C)C` (stereo partly drawn) [Example 39], the IC50 in assay [1] was determined as 0.065 µM; at His-BIR3 (241-356, XIAP), 0.089 µM.

With `CN[C@@H](C)C(=O)N[C@H](C(=O)N1C[C@@H](NC(=O)c2ccc(C(=O)Nc3ccc4c(c3)CN(C(=O)[C@@H](NC(=O)[C@H](C)NC)C(C)(C)SC)[C@H](C(=O)N[C@@H]3CCCc5ccccc53)C4)cc2)C[C@H]1C(=O)N[C@@H]1CCCc2ccccc21)C(C)(C)C` [Example 55, N^1-((3S,5S)-1-((S)-3,3-Dimethyl-2-((S)-2-(methylamino)propanamido)butanoyl)-5-(((R)-1,2,3,4-tetrahydronaphthalen-1-yl)carbamoyl)pyrrolidin-3-yl)-N^4—((S)-2-((R)-3-methyl-2-((S)-2-(methylamino)propanamido)-3-(methylthio)butanoyl)-3-(((R)-1,2,3,4-tetrahydronaphthalen-1-yl)carbamoyl)-1,2,3,4-tetrahydroisoquinolin-7-yl)terephthalamide], the concentration for half-maximal inhibition (IC50) is 0.004 µM in assay [1] and 0.009 µM at His-BIR3 (241-356, XIAP).

As to `CN[C@@H](C)C(=O)N[C@H](C(=O)N1Cc2cc(C(=O)Nc3nc(C(=O)N[C@H]4C[C@@H](C(=O)N[C@@H]5CCCc6ccccc65)N(C(=O)[C@@H](NC(=O)[C@H](C)NC)C(C)(C)C)C4)co3)ccc2C[C@H]1C(=O)N[C@@H]1CCCc2ccccc21)C(C)(C)C` [Example 22, (S)-2-((S)-3,3-Dimethyl-2-((S)-2-(methylamino)propanamido)butanoyl)-N^7-(4-(((3S,5S)-1-((S)-3,3-dimethyl-2-((S)-2-(methylamino)propanamido)butanoyl)-5-(((R)-1,2,3,4-tetrahydronaphthalen-1-yl)carbamoyl)pyrrolidin-3-yl)carbamoyl)oxazol-2-yl)-N^3-((R)-1,2,3,4-tetrahydronaphthalen-1-yl)-1,2,3,4-tetrahydroisoquinoline-3,7-dicarboxamide], the IC50 in assay [1] was 0.004 µM; against His-BIR3 (241-356, XIAP) it was 0.014 µM.

Take `CN[C@@H](C)C(=O)N[C@H](C(=O)N1C[C@@H](NC(=O)c2ccc(C(=O)Nc3ccc4c(c3)CN(C(=O)[C@@H](NC(=O)[C@H](C)NC)C(C)(C)SCC(=O)OC)[C@H](C(=O)N[C@@H]3CCCc5ccccc53)C4)cc2)C[C@H]1C(=O)N[C@@H]1CCCc2ccccc21)C(C)(C)C` [Example 56, Methyl 2-(((R)-4-((S)-7-(4-(((3S,5S)-1-((S)-3,3-dimethyl-2-((S)-2-(methylamino)propanamido)butanoyl)-5-(((R)-1,2,3,4-tetrahydronaphthalen-1-yl)carbamoyl)pyrrolidin-3-yl)carbamoyl)benzamido)-3-(((R)-1,2,3,4-tetrahydronaphthalen-1-yl)carbamoyl)-3,4-dihydroisoquinolin-2(1H)-yl)-2-methyl-3-((S)-2-(methylamino)propanamido)-4-oxobutan-2-yl)thio)acetate]: the IC50 was found to be 0.012 µM in assay [1] and 0.017 µM on His-BIR3 (241-356, XIAP).

Turning to `CN[C@@H](C)C(=O)N[C@H](C(=O)N1C[C@@H](NC(=O)c2ccc(C(=O)Nc3ccc4c(c3)CN(C(=O)[C@@H](NC(=O)[C@H](C)NC)C(C)(C)SCC(=O)N3CCOCC3)[C@H](C(=O)N[C@@H]3CCCc5ccccc53)C4)cc2)C[C@H]1C(=O)N[C@@H]1CCCc2ccccc21)C(C)(C)C` [Example 61, N^1-((3S,5S)-1-((S)-3,3-Dimethyl-2-((S)-2-(methylamino)propanamido)butanoyl)-5-(((R)-1,2,3,4-tetrahydronaphthalen-1-yl)carbamoyl)pyrrolidin-3-yl)-N^4-((S)-2-((R)-3-methyl-2-((S)-2-(methylamino)propanamido)-3-((2-morpholino-2-oxoethyl)thio)butanoyl)-3-(((R)-1,2,3,4-tetrahydronaphthalen-1-yl)carbamoyl)-1,2,3,4-tetrahydroisoquinolin-7-yl)terephthalamide], the IC50 stood at 0.016 µM in assay [1] and 0.031 µM against His-BIR3 (241-356, XIAP).

With `CN[C@@H](C)C(=O)N[C@H](C(=O)N1Cc2cc(NC(=O)c3ccc(C(=O)N[C@H]4C[C@@H](C(=O)N[C@@H]5CCCc6ccccc65)N(C(=O)[C@@H](NC(=O)[C@H](C)NC)C(C)(C)C)C4)cc3)ccc2C[C@H]1C(=O)N[C@H](C)c1ccccc1F)C(C)(C)C` [Example 11, N^1-((S)-2-((S)-3,3-Dimethyl-2-((S)-2-(methylamino)propanamido)butanoyl)-3-(((R)-1-(2-fluorophenyl)ethyl)carbamoyl)-1,2,3,4-tetrahydroisoquinolin-7-yl)-N^4-((3S,5S)-1-((S)-3,3-dimethyl-2-((S)-2-(methylamino)propanamido)butanoyl)-5-(((R)-1,2,3,4-tetrahydronaphthalen-1-yl)carbamoyl)pyrrolidin-3-yl)terephthalamide], the concentration for half-maximal inhibition (IC50) in assay [1] came to 0.012 µM; on His-BIR3 (241-356, XIAP), 0.018 µM.

As for `CN[C@@H](C)C(=O)N[C@H](C(=O)N1C[C@@H](NC(=O)c2ccc(C(=O)Nc3ccc4c(c3)CN(C(=O)[C@@H](NC(=O)[C@H](C)NC)C(C)(C)SCC(=O)N3CCCCC3)[C@H](C(=O)N[C@@H]3CCCc5ccccc53)C4)cc2)C[C@H]1C(=O)N[C@@H]1CCCc2ccccc21)C(C)(C)C` [Example 58, N^1-((3S,5S)-1-((S)-3,3-Dimethyl-2-((S)-2-(methylamino)propanamido)butanoyl)-5-(((R)-1,2,3,4-tetrahydronaphthalen-1-yl)carbamoyl)pyrrolidin-3-yl)-N^4—((S)-2-((R)-3-methyl-2-((S)-2-(methylamino)propanamido)-3-((2-oxo-2-(piperidin-1-yl)ethyl)thio)butanoyl)-3-(((R)-1,2,3,4-tetrahydronaphthalen-1-yl)carbamoyl)-1,2,3,4-tetrahydroisoquinolin-7-yl)terephthalamide], the IC50 worked out at 0.018 µM in assay [1] and 0.027 µM on His-BIR3 (241-356, XIAP).

As for `CN[C@@H](C)C(=O)N[C@H](C(=O)N1C[C@@H](NC(=O)c2ccc(C(=O)Nc3ccc4c(c3)CN(C(=O)[C@@H](NC(=O)[C@H](C)NC)C(C)(C)SCC(=O)NCCO)[C@H](C(=O)N[C@@H]3CCCc5ccccc53)C4)cc2)C[C@H]1C(=O)N[C@@H]1CCCc2ccccc21)C(C)(C)C` [Example 63, N^1-((3S,5S)-1-((S)-3,3-Dimethyl-2-((S)-2-(methylamino)propanamido)butanoyl)-5-(((R)-1,2,3,4-tetrahydronaphthalen-1-yl)carbamoyl)pyrrolidin-3-yl)-N^4-((S)-2-((R)-3-((2-((2-hydroxyethyl)amino)-2-oxoethyl)thio)-3-methyl-2-((S)-2-(methylamino)propanamido)butanoyl)-3-(((R)-1,2,3,4-tetrahydronaphthalen-1-yl)carbamoyl)-1,2,3,4-tetrahydroisoquinolin-7-yl)terephthalamide], the 50% inhibitory concentration (IC50) in assay [1] amounted to 0.005 µM; on His-BIR3 (241-356, XIAP) it was 0.017 µM.

As to `CN[C@@H](C)C(=O)N[C@H](C(=O)N1Cc2cc(C(=O)Nc3ccc4cc(C(=O)N[C@H]5C[C@@H](C(=O)N[C@@H]6CCCc7ccccc76)N(C(=O)[C@@H](NC(=O)[C@H](C)NC)C(C)(C)C)C5)[nH]c4c3)ccc2C[C@H]1C(=O)N[C@@H]1CCCc2ccccc21)C(C)(C)C` [Example 24, (S)-2-((S)-3,3-Dimethyl-2-((S)-2-(methylamino)propanamido)butanoyl)-N^7-(2-(((3S,5S)-1-((S)-3,3-dimethyl-2-((S)-2-(methylamino)propanamido)butanoyl)-5-(((R)-1,2,3,4-tetrahydronaphthalen-1-yl)carbamoyl)pyrrolidin-3-yl)carbamoyl)-1H-indol-6-yl)-N^3-((R)-1,2,3,4-tetrahydronaphthalen-1-yl)-1,2,3,4-tetrahydroisoquinoline-3,7-dicarboxamide], the 50% inhibitory concentration (IC50) was 0.033 µM in assay [1] and 0.093 µM against His-BIR3 (241-356, XIAP).

With `CN[C@@H](C)C(=O)N[C@H](C(=O)N1Cc2cc(C(=O)Nc3ncc(C(=O)N[C@H]4C[C@@H](C(=O)N[C@@H]5CCCc6ccccc65)N(C(=O)[C@@H](NC(=O)[C@H](C)NC)C(C)(C)C)C4)s3)ccc2C[C@H]1C(=O)N[C@@H]1CCCc2ccccc21)C(C)(C)C` [Example 21, (S)-2-((S)-3,3-Dimethyl-2-((S)-2-(methylamino)propanamido)butanoyl)-N^7-(5-(((3S,5S)-1-((S)-3,3-dimethyl-2-((S)-2-(methylamino)propanamido)butanoyl)-5-(((R)-1,2,3,4-tetrahydronaphthalen-1-yl)carbamoyl)pyrrolidin-3-yl)carbamoyl)thiazol-2-yl)-N^3-((R)-1,2,3,4-tetrahydronaphthalen-1-yl)-1,2,3,4-tetrahydroisoquinoline-3,7-dicarboxamide], the IC50 in assay [1] came out at 0.006 µM; against His-BIR3 (241-356, XIAP), 0.017 µM.

For the compound `CN[C@@H](C)C(=O)N[C@H](C(=O)N1C[C@@H](NC(=O)c2ccc(C(=O)Nc3ccc4c(c3)CN(C(=O)[C@@H](NC(=O)[C@H](C)NC)C(C)(C)SCCO)[C@H](C(=O)N[C@@H]3CCCc5ccccc53)C4)cc2)C[C@H]1C(=O)N[C@@H]1CCCc2ccccc21)C(C)(C)C` [Example 67, N^1-((3S,5S)-1-((S)-3,3-Dimethyl-2-((S)-2-(methylamino)propanamido)butanoyl)-5-(((R)-1,2,3,4-tetrahydronaphthalen-1-yl)carbamoyl)pyrrolidin-3-yl)-N^4-((S)-2-((R)-3-((2-hydroxyethyl)thio)-3-methyl-2-((S)-2-(methylamino)propanamido)butanoyl)-3-(((R)-1,2,3,4-tetrahydronaphthalen-1-yl)carbamoyl)-1,2,3,4-tetrahydroisoquinolin-7-yl)terephthalamide], the IC50 in assay [1] amounted to 0.006 µM; against His-BIR3 (241-356, XIAP), 0.014 µM.

Regarding `CN[C@@H](C)C(=O)N[C@H](C(=O)N1Cc2cc(NC(=O)c3cccc4c3ccn4C(=O)N[C@H]3C[C@@H](C(=O)N[C@@H]4CCCc5ccccc54)N(C(=O)[C@@H](NC(=O)[C@H](C)NC)C(C)(C)C)C3)ccc2C[C@H]1C(=O)N[C@H](C)c1ccccc1F)C(C)(C)C` [Example 51], the IC50 in assay [1] is 0.027 µM; against His-BIR3 (241-356, XIAP), 0.054 µM.
